From patent US11673876B2, “Substituted aminobenzyl heteroaryl compounds as EGFR and/or PI3K inhibitors” (Mekanistic Therapeutics LLC, priority 2020, dated 2023) come the findings set out here.

For one series, the target named is PI3Ka (Homo sapiens (Human), UniProt P42336). Briefly: Z'-LYTE / Adapta kinase assay, PI3Ka. Type of series: biochemical. The method, boiled down: (§1)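 Z'-LYTE FRET-peptide phosphorylation read as coumarin/fluorescein emission ratio (400 nm excitation); Adapta immunoassay detects ADP formation. 60-min kinase reaction, 60-min development, room temperature.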
Another series deals with DNA-PK (Homo sapiens (Human), UniProt P78527). Briefly: Z'-LYTE / Adapta kinase assay, DNA-PK. The format is biochemical. The method, boiled down:
as §1

Series [1] in a line: Metabolic stability in mouse liver microsomes. Type of series: in vitro ADME. On the procedure:
(§2) Working solution: 5 μL of compound and control stock solution (10 mM in dimethyl sulfoxide (DMSO)) were diluted with 495 μL of acetonitrile (ACN) (intermediate solution concentration: 100 μM, 99% ACN)
(§3) NADPH Cofactor Preparation: NADPH powder: β-Nicotinamide adenine dinucleotide phosphate reduced form, tetrasodium salt; NADPH·4Na. The appropriate amount of NADPH powder was weighed and diluted into a 10 mM MgCl2 solution (working solution concentration: 10 unit/mL; final concentration in reaction system: 1 unit/mL)
(§4) Liver Microsomes Preparation: The appropriate concentrations of microsome working solutions were prepared in 100 mM potassium phosphate buffer. Cold (4° C.) acetonitrile (ACN) containing 200 ng/mL tolbutamide and 200 ng/mL labetalol as internal standards (1S) was used as the stop solution
(§5) Assay Procedure: Pre-warm empty ‘Incubation’ plates T60 and NCF60 for 10 minutes. Dilute liver microsomes to 0.56 mg/mL in 100 mM phosphate buffer. Transfer 445 μL microsome working solutions (0.56 mg/mL) into pre-warmed ‘Incubation’ plates T60 and NCF60, Then pre-incubate ‘Incubation’ plates T60 and NCF60 for 10 min at 37° C. with constant shaking. Transfer 54 μL liver microsomes to blank plate, then add 6 μL NAPDH cofactor to blank plate, and then add 180 μL quenching solution to blank plate. Add 5 μL compound working solution (100 μM) into ‘incubation’ plates (T60 and NCF60) containing microsomes and mix 3 times thoroughly.
(§6) For the NCF60 plate, add 50 μL of buffer and mix 3 times thoroughly. Start timing; plate will be incubated at 37° C. for 60 min while shaking. In ‘Quenching’ plate T0, add 180 μL quenching solution and 6 μL NAPDH cofactor. Ensure the plate is chilled to prevent evaporation. For the T60 plate, mix 3 times thoroughly, and immediately remove 54 μL mixture for the 0-min time point to ‘Quenching’ plate. Then add 44 μL NAPDH cofactor to incubation plate (T60). Start timing; plate will be incubated at 37° C. for 60 min while shaking. At 5, 10, 20, 30, and 60 min, add 180 μL quenching solution to ‘Quenching’ plates, mix once, and serially transfer 60 μL sample from T60 plate per time point to ‘Quenching’ plates. For NCF60: mix once, and transfer 60 μL sample from the NCF60 incubation to ‘Quenching’ plate containing quenching solution at the 60-min time point. All sampling plates are shaken for 10 min, then centrifuged at 4000 rpm for 20 minutes at 4° C. Transfer 80 μL supernatant into 240 μL HPLC water, and mix by plate shaker for 10 min. Each bioanalysis plate was sealed and shaken for 10 minutes prior to LC-MS/MS analysis.
(§7) The equation of first order kinetics was used to calculate T½ and CLint(mic) (μL/min/mg). Equation of first order kinetics: […]
(§8) The biological stability of the compounds of the disclosure can be measured by determining its ½ life in the presence microsomes. Presented in Table 5, is the ½ life of selected compounds of the disclosure in the presence of human liver microsomes (HLM) or mouse liver microsomes (MLM) as described above. In Table 5, ½ life is presented as “++++” (value is greater than 60 minutes), “+++” (value is greater than 30 minutes and less than or equal to 60 minutes), “++” (value is greater than 15 minutes and less than or equal to 30 minutes) and “+” (value is 15 minutes or less).

A short description of series [2]: Metabolic stability in human liver microsomes. Type of series: in vitro ADME. Here is the method: as §2, §3, §4, §5, §6, §7, §8
In a further series the target is EGFR (Homo sapiens (Human), UniProt P00533). Briefly: Z'-LYTE / Adapta kinase assay, EGFR. The format is biochemical. The method in brief: as §1
EGFR, sequence (P00533 25-1210): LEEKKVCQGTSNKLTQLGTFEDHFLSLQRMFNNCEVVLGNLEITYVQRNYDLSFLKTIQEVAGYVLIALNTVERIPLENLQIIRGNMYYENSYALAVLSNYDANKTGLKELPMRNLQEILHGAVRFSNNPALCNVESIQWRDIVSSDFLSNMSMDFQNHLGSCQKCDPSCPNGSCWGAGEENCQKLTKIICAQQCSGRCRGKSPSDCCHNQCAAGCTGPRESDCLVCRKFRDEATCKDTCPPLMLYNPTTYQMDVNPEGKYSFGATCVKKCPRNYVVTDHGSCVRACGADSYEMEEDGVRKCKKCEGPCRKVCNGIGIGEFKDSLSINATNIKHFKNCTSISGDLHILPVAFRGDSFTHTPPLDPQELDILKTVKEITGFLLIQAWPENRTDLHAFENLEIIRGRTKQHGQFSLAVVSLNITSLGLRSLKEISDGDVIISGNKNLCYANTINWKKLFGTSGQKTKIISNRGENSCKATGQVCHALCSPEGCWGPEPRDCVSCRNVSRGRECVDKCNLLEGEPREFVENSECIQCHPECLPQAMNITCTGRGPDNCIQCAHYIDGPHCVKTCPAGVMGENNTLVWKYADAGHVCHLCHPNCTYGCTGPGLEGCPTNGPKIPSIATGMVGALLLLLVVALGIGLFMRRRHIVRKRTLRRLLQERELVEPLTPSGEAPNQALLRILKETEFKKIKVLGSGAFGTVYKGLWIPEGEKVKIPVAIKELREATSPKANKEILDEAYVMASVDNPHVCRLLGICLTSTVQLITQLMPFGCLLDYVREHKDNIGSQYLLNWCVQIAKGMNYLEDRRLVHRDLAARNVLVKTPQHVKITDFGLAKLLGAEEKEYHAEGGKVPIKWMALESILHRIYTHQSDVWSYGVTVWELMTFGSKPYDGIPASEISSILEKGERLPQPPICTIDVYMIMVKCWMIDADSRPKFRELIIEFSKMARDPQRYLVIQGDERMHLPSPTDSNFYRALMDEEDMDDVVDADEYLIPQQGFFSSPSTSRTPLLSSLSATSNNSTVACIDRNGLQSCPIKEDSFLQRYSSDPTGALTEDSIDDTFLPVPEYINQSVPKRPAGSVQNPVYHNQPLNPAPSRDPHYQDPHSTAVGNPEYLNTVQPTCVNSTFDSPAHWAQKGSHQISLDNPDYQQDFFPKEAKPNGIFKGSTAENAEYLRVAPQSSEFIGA

PI3Ka, sequence (P42336 whole entry): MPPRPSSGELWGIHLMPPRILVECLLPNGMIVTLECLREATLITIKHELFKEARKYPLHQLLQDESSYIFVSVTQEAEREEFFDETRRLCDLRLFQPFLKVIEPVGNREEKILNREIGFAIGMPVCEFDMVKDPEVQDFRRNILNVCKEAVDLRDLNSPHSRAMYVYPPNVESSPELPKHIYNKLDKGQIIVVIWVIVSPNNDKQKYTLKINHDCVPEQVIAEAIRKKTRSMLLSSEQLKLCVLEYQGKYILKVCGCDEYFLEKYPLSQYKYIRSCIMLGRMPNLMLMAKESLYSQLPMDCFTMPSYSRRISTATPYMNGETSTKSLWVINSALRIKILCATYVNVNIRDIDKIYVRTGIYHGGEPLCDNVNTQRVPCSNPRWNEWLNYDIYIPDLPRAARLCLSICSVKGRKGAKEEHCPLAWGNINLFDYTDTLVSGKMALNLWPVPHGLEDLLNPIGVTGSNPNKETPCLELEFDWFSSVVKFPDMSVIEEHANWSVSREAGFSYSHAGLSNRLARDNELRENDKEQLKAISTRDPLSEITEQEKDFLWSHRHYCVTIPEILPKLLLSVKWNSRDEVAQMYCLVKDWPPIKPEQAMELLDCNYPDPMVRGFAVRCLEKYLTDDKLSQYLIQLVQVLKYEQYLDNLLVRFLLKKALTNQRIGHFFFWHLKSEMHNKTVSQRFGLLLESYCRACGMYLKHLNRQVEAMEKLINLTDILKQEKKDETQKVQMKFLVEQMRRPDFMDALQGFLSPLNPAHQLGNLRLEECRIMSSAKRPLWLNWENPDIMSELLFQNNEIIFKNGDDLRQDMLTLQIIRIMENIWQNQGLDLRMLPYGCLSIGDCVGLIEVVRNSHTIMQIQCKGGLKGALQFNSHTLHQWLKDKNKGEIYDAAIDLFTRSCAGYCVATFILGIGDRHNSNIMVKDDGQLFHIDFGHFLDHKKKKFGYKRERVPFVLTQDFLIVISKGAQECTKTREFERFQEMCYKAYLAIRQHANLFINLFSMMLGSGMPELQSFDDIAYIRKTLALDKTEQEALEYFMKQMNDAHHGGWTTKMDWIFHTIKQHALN
PI3Ka, sequence (P27986 whole entry partner): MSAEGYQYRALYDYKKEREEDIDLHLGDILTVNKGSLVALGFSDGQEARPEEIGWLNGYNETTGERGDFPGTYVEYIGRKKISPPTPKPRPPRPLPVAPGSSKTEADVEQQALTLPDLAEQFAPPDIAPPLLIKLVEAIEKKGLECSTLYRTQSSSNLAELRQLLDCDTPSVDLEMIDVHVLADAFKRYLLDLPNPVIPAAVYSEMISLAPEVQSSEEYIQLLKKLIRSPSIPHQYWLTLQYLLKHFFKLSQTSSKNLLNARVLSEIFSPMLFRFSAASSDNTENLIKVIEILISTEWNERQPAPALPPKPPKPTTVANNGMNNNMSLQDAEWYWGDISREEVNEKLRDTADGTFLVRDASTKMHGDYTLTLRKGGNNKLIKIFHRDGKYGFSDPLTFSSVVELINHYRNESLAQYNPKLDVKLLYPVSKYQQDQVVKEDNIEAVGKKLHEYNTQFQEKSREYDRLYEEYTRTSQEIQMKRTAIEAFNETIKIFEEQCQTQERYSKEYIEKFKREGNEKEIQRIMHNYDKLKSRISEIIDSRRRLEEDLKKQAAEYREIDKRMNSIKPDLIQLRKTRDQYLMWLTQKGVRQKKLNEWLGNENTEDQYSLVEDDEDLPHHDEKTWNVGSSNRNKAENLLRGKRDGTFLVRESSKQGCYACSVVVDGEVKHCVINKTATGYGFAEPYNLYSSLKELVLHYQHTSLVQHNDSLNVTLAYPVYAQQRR

For the molecule `CC(Nc1ncnc2ccc(-c3cnc(N)nc3)cc12)c1ccc(F)cc1` (centres unmarked) [Compound 121, 6-(2-aminopyrimidin-5-yl)-N-(1-(4-fluorophenyl)ethyl)quinazolin-4-amine], the “PI3Ka IC50 (nM)” value on PI3Ka is recorded as “+ (value is greater than 200 nM)”. Further, the inhibition at 0.1 µM on PI3Ka (read-out: PI3Ka % Inh. @ 100 nM) is 10 to 80%; at DNA-PK (read-out: DNA-PK % Inh. @ 100 nM), 10 to 80%; on EGFR (read-out: EGFR % Inh. @ 100 nM) it was 80 to 90%. Also, the IC50 against DNA-PK was greater than 200 nM; on EGFR, 2 to 20 nM. In series [1], the “½ life minutes (MLM)” value was “++++ (value is greater than 60 minutes)”. Further, the “½ life minutes (HLM)” value in series [2] is reported as “++++ (value is greater than 60 minutes)”.
